Laboratory results as given in US20210092955A1, “METHOD OF CONTROLLING HERBICIDE RESISTANT WEEDS IN CROPS” (SUMITIMO CHEMICAL COMPANY, LIMITED, priority 2018, published 2021).

How the values were obtained:
Type in all cases: in vivo
[1] = test system: wild-type Amaranthus palmeri; assay: Herbicidal effect, foliar spray in greenhouse pots (Example 4609); details: rating 0 to 100, 25 g/ha, foliar spray 216 L/ha, 17 days after treatment
From the text: (§1) Plastic pots each having a diameter of 8 cm and a height of 7 cm were filled with the soil and seedlings of Amaranthus palmeri having a Gly399Ala mutation in PPO2 (originated from Mississippi, USA) were planted. After cultivation in a greenhouse for 31 days, an aqueous spray liquid prepared by diluting a predetermined amount of a commercial saflufenacil formulation (suspension concentrate containing 29.74% of saflufenacil, manufactured by BASF Corp. under the trade name of Sharpen) with water was sprayed uniformly over the weed using a sprayer in an amount of 216 L/ha. Then, the weeds were cultivated in a greenhouse for 17 days, followed by examining the herbicidal effects. For comparison, Amaranthus palmeri having Gly210 deletion in PPO2 (originated from Illinois, USA) and commercially available wild-type Amaranthus palmeri were tested.

[2] = test system: Amaranthus palmeri having a Gly399Ala mutation in PPO2; assay: as above; details: rating 0 to 100; 25 g/ha; foliar spray 216 L/ha; 17 days after treatment
From the text: as §1

[3] = test system: Amaranthus palmeri having Gly210 deletion in PPO2; assay: Herbicidal effect, foliar spray in greenhouse pots (Example 4609, comparison); details: rating 0 to 100; 25 g/ha; foliar spray 216 L/ha; 17 days after treatment; known art comparison
From the text: as §1

[4] = test system: Amaranthus palmeri having Arg128Gly mutation in PPO2; assay: Herbicidal effect, foliar spray in greenhouse pots (Example 4610); details: rating 0 to 100; 100 g/ha; foliar spray 200 L/ha; 4 days after treatment
From the text: (§2) Plastic pots each having a diameter of 8 cm and a height of 7 cm were filled with the soil and seedlings of Amaranthus palmeri having Arg128Gly mutation in PPO2 (originated from Arkansas, USA) were planted. After cultivaited in a greenhouse for 42 days, an aqueous spray liquid prepared by diluting a predetermined amount of trifludimoxazin formulation (emulsifiable concentrate obtained by mixing 20 parts of trifludimoxazin with 80 parts liquid cocktail (5:1 mixture of cyclohexanone and Sorpol 2680X (TOHO Chemical Industry Co., Ltd.))) with water, and its mixture with saflufenacil made by additionally diluting a predetermined amount of commercial saflufenacil formulation (suspension concentrate containing 29.74% of saflufenacil, manufactured by BASF Corp. under the trade name of Sharpen) were separately sprayed over the weed using a sprayer in an amount of 200 L/ha uniformly. Then, the weeds were cultivated in a greenhouse for 4 days, followed by examininig the herbicidal effects on the weeds. For comparison, waterhemp having Gly210 deletion in PPO2 (originated from Illinois, USA), commercially available wild-type waterhemp, and commercially available wild-type Amaranthus palmeri were tested.

[5] = test system: wild-type Amaranthus palmeri; assay: as above; details: rating 0 to 100; 100 g/ha; foliar spray 200 L/ha; 4 days after treatment
From the text: as §2

[6] = test system: waterhemp having Gly210 deletion in PPO2; assay: Herbicidal effect, foliar spray in greenhouse pots (Example 4610, comparison); details: rating 0 to 100; 100 g/ha; foliar spray 200 L/ha; 4 days after treatment; known art comparison
From the text: as §2

wild-type waterhemp = assay: as above; details: rating 0 to 100; 100 g/ha; foliar spray 200 L/ha; 4 days after treatment
From the text: as §2

[7] = test system: Amaranthus palmeri having an Arg128Met mutation in PPO2; assay: Soil surface treatment on day of sowing weed and soybean (Example 2); details: 10, 20, 40, or 80 g/ha on soil surface on day of sowing; examined after 21 days
From the text: Amaranthus palmeri having an Arg128Met mutation in PPO2 and soybean are sown in a plastic pot. On the same day, a compound X is applied to the surface of soil in an amount of 10, 20, 40, or 80 g/ha by spraying 200 L/ha of an aqueous dilution containing the compound X. Then, the weeds and soybean are cultivated in a greenhouse to examine the effects on the weeds and phytotoxic effects on soybean after 21 days.

[8] = test system: Amaranthus palmeri having an Arg128Met mutation in PPO2; assay: Foliar treatment 21 days after sowing (Example 3); details: 10, 20, 40, or 80 g/ha foliar treatment 21 days after sowing; examined 14 days after the treatment
From the text: Amaranthus palmeri having an Arg128Met mutation in PPO2 and soybean are sown in a plastic pot. Then, the weeds and soybean are cultivated in a greenhouse. A compound X is applied in an amount of 10, 20, 40, or 80 g/ha by spraying 200 L/ha of an aqueous dilution containing the compound X to perform foliar treatment 21 days after the sowing. Then, the weeds and soybean are cultivated in a greenhouse to examine the effects on the weeds and phytotoxic effects on soybean 14 days after the treatment.

[9] = test system: Amaranthus palmeri having an Arg128Met mutation in PPO2; assay: Soil surface treatment before sowing soybean (Example 1); details: 10, 20, 40, or 80 g/ha on soil surface on day of weed sowing; soybean sown after 7 days; examined after 14 days
From the text: Amaranthus palmeri having an Arg128Met mutation in PPO2 is sown in a plastic pot. On the same day, a compound X is applied to the surface of soil in an amount of 10, 20, 40, or 80 g/ha by spraying 200 L/ha of an aqueous dilution containing the […]. Then, the weeds are cultivated in a greenhouse and soybean seeds are sown after 7 days, to examine the effects on the weeds and phytotoxic effects on soybean after 14 days.

SMILES: CC(C)N(C)S(=O)(=O)NC(=O)c1cc(-n2c(=O)cc(C(F)(F)F)n(C)c2=O)c(F)cc1Cl [Saflufenacil]
- herbicidal effect, Amaranthus palmeri Wild-type ([1]; Table 1): 100
- herbicidal effect, Amaranthus palmeri Wild-type ([1]; Table 2): 100
- herbicidal effect, Amaranthus palmeri Gly399Ala mutation [2]: 100
- herbicidal effect, Amaranthus palmeri Gly210 deletion [3]: 65

SMILES: C#CCN1C(=O)C(F)(F)Oc2cc(F)c(-n3c(=O)n(C)c(=S)n(C)c3=O)cc21 [Trifludimoxazin]
- herbicidal effect, Amaranthus palmeri Arg128Gly mutation [4]: 88
- herbicidal effect, Amaranthus palmeri Wild-type [5]: 90
- herbicidal effect, waterhemp Gly210 deletion [6]: 50
- herbicidal effect, waterhemp Wild-type (wild-type waterhemp): 95

SMILES: CCOC(=O)COc1ncccc1Oc1cc(-n2c(=O)cc(C(F)(F)F)n(C)c2=O)c(F)cc1Cl [compound X, Ethyl [3-[2-chloro-4-fluoro-5-(1-methyl-6-trifluoromethyl-2,1-dioxo-1,2,3,1-tetrahydropyrimidine-3-yl)phenoxy]-2-pyridyloxy]acetate]
- effects on the weeds [7]: valuable effect
- effects on the weeds [8]: valuable effect
- effects on the weeds [9]: valuable effect
